Test results reported in publication doi:10.1101/2023.11.24.568596v1 (biorxiv, 2023).

Tests used:
Settings in all cases: binder
AurA = target: T1, AurA (Homo sapiens, UniProt O14965)
T1 sequence (O14965 1-403): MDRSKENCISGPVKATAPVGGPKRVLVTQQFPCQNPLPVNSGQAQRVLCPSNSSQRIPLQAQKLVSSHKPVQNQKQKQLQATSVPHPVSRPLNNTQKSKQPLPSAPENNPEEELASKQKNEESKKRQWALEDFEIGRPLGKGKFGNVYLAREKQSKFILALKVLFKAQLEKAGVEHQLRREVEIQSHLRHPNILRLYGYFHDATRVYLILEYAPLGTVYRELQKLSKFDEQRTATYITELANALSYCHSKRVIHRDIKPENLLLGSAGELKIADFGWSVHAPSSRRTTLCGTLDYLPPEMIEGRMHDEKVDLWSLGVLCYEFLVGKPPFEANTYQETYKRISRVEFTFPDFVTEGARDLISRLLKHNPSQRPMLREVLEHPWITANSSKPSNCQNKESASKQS

Erk7 = target: T2, Erk7 (Homo sapiens, UniProt Q8TD08)
T2 sequence (Q8TD08 1-544): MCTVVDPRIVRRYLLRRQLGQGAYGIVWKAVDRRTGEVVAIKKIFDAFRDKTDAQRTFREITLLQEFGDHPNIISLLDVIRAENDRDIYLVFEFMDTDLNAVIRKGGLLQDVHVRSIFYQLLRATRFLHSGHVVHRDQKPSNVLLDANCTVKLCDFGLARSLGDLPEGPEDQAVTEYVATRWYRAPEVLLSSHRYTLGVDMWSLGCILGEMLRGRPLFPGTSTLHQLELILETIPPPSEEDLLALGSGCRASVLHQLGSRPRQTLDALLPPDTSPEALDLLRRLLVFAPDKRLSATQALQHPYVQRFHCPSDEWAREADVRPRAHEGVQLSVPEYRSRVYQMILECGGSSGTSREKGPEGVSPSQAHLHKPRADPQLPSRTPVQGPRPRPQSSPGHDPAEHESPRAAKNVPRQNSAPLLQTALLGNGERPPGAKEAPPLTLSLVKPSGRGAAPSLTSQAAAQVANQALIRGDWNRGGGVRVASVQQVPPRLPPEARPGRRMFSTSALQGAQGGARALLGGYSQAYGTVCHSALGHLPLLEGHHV

JNK1 = JNK1 (Homo sapiens, UniProt P45983)
MAP2K4 = target: T3, MAP2K4 (Homo sapiens, UniProt P45985)
T3 sequence (P45985 1-399): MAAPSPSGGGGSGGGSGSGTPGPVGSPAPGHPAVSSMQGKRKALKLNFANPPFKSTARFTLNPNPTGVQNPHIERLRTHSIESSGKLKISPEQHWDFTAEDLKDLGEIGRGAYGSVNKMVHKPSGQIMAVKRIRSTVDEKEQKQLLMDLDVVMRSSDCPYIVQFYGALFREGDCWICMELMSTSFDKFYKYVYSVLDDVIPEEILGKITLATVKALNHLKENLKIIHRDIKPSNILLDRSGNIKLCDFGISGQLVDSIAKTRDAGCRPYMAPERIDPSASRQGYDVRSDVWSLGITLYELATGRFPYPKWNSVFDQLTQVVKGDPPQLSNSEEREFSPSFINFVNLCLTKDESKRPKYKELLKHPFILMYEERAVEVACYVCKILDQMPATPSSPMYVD

MARK4 = target: T4, MARK4 (Homo sapiens, UniProt Q96L34)
T4 sequence (Q96L34 1-752): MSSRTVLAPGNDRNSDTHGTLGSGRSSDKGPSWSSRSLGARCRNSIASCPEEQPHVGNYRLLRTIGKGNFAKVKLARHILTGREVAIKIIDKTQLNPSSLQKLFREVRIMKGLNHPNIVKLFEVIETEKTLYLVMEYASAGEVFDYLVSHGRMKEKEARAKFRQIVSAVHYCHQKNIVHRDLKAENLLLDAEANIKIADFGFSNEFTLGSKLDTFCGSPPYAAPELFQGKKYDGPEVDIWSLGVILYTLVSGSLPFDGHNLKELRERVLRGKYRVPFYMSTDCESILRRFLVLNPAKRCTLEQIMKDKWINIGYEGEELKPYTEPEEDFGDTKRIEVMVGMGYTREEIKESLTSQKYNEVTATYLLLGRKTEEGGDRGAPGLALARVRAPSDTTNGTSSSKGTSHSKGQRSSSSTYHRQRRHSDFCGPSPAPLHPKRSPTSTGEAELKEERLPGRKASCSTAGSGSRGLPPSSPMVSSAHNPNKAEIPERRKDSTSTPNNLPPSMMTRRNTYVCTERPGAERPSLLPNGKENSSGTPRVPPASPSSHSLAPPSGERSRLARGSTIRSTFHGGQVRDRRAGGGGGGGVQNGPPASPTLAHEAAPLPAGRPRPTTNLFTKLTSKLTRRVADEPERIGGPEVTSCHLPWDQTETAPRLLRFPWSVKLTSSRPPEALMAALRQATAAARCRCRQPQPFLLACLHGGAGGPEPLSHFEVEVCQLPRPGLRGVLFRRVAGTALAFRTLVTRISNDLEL

NQO2A = target: T5, NQO2A (Homo sapiens, UniProt P16083)
T5 sequence (P16083 1-231): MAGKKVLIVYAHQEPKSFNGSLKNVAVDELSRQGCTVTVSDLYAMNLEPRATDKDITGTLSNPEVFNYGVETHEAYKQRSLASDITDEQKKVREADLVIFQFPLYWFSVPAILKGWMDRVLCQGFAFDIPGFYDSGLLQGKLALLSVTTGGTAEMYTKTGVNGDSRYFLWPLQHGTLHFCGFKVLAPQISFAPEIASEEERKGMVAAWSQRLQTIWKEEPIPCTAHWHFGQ

OSR1 = OSR1 (Homo sapiens, UniProt O95747)
PAK4 = PAK4 (Homo sapiens, UniProt O96013)
SRC = SRC (Homo sapiens, UniProt P12931)
Sequence of SRC (P12931 whole entry): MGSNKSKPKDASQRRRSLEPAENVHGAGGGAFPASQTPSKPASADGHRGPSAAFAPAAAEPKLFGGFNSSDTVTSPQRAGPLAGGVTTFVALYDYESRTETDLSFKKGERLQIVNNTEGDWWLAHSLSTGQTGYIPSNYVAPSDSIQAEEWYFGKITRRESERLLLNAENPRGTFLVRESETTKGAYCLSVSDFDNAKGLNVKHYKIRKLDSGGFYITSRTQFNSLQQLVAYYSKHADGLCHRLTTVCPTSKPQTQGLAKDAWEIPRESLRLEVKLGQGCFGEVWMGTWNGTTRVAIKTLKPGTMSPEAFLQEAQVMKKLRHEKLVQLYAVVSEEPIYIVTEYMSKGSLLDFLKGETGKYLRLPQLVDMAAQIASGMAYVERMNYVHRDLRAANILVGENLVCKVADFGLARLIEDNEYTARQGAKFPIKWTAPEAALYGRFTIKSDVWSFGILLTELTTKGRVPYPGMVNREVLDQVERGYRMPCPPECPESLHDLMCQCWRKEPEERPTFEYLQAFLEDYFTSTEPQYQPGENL

Sequence of OSR1 (O95747 whole entry): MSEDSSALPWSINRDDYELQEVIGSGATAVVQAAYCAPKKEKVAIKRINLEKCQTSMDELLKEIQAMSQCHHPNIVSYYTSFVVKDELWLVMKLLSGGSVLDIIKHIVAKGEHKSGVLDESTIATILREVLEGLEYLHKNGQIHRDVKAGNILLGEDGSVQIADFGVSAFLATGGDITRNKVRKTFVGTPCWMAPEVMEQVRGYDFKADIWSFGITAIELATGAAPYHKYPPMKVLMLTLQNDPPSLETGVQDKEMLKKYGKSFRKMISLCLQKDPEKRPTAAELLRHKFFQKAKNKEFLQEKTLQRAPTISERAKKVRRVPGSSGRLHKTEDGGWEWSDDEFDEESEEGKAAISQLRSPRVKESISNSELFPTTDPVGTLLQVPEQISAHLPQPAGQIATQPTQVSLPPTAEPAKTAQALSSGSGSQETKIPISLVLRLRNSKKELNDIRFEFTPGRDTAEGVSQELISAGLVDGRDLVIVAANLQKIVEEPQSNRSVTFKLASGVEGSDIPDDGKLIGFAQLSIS
Sequence of PAK4 (O96013 whole entry): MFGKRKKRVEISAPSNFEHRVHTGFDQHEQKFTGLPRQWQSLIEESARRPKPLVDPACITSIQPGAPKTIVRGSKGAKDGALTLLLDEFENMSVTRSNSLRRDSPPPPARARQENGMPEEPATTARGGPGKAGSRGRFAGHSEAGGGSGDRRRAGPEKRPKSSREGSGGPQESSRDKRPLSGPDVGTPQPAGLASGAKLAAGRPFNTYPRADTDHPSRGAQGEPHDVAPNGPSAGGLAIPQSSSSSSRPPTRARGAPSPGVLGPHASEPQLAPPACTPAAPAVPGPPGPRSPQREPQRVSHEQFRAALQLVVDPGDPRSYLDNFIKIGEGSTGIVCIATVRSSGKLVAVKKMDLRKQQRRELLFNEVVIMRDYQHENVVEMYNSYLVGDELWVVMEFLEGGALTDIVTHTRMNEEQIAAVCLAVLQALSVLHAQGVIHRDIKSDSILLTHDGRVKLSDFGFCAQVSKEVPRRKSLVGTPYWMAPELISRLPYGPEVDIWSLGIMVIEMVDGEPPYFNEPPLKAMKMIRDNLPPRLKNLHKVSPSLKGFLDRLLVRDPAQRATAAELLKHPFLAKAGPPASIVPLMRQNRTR
Sequence of JNK1 (P45983 whole entry): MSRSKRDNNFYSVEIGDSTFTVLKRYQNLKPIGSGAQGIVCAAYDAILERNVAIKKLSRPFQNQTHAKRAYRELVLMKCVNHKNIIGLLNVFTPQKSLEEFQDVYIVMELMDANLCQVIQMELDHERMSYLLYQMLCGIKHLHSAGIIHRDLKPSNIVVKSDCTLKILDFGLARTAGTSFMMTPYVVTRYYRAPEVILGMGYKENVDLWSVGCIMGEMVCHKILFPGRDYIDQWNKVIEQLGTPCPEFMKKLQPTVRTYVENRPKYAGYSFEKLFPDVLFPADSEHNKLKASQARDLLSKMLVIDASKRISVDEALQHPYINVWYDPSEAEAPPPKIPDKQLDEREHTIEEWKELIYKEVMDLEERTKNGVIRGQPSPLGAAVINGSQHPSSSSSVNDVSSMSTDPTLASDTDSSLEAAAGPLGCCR

Cc1cccc(-c2ccc(-c3cc4cnc(Nc5ccc(F)c(CO)c5)nc4n(CCCCN)c3=O)c(Cl)c2)n1 [compound 33, 8-(4-Aminobutyl)-6-(2-chloro-4-(6-methylpyridin-2-yl)phenyl)-2-((4-fluoro-3-(hydroxymethyl)phenyl)amino)pyrido[2,3-d]pyrimidin-7(8H)-one]
dTm 33 (AurA): 2.8 °C | dTm 33 (Erk7): 1.6 °C | dTm 33 (JNK1): 2.2 °C | dTm 33 (MAP2K4): 10.0 °C | dTm 33 (MARK4): 10.3 °C | dTm 33 (NQO2A): 0.9 °C | dTm 33 (OSR1): 2.4 °C | dTm 33 (PAK4): 8.2 °C | dTm 33 (SRC): 4.7 °C

COc1ccc(O)c(Nc2ncc3cc(-c4ccc(-c5cccc(C)n5)cc4Cl)c(=O)n(CCCCN)c3n2)c1 [compound 34, 8-(4-Aminobutyl)-6-(2-chloro-4-(6-methylpyridin-2-yl)phenyl)-2-((2-hydroxy-5-methoxy-phenyl)amino)pyrido[2,3-d]pyrimidin-7(8H)-one]
dTm 34 (AurA): 3.4 °C | dTm 34 (Erk7): -0.4 °C | dTm 34 (JNK1): 1.8 °C | dTm 34 (MAP2K4): 8.0 °C | dTm 34 (MARK4): 4.6 °C | dTm 34 (NQO2A): -1.3 °C | dTm 34 (OSR1): 0.4 °C | dTm 34 (PAK4): 3.0 °C | dTm 34 (SRC): 3.1 °C

COc1cc(N2CCOCC2)ccc1Nc1ncc2cc(-c3ccc(-c4cccc(C)n4)cc3Cl)c(=O)n(CCCCN)c2n1 [compound 35, 8-(4-Aminobutyl)-6-(2-chloro-4-(6-methylpyridin-2-yl)phenyl)-2-((2-methoxy-4-morpholino-phenyl)amino)pyrido[2,3-d]pyrimidin-7(8H)-one]
dTm 35 (AurA): 8.6 °C | dTm 35 (Erk7): 1.1 °C | dTm 35 (JNK1): 4.7 °C | dTm 35 (MAP2K4): 7.6 °C | dTm 35 (MARK4): 6.6 °C | dTm 35 (NQO2A): -2.4 °C | dTm 35 (OSR1): 2.6 °C | dTm 35 (PAK4): 4.1 °C | dTm 35 (SRC): 4.4 °C

COc1cc(N2CCN(C)CC2)ccc1Nc1ncc2cc(-c3ccc(-c4cccc(C)n4)cc3Cl)c(=O)n(CCCCN)c2n1 [compound 36, 8-(4-Aminobutyl)-6-(2-chloro-4-(6-methylpyridin-2-yl)phenyl)-2-((2-methoxy-4-(4-methylpiperazin-1-yl)phenyl)amino)pyrido[2,3-d]pyrimidin-7(8H)-one]
dTm 36 (AurA): 5.1 °C | dTm 36 (Erk7): -0.5 °C | dTm 36 (JNK1): 1.7 °C | dTm 36 (MAP2K4): 6.9 °C | dTm 36 (MARK4): 7.4 °C | dTm 36 (NQO2A): -1.0 °C | dTm 36 (OSR1): 3.4 °C | dTm 36 (PAK4): 3.9 °C | dTm 36 (SRC): 4.1 °C
